The test system of assay [1] is HUVEC cell. The assay can be described thus: Cell Migration Assay (Boyden chamber). It is filed as cell-based. As to conditions: Homo sapiens, HUVEC cells, 5 h, read-out: Inhibition of chemotaxis IC50. The method, then:
Cord formation and cell migration assays were executed following explicit directives provided by the inventors of the present invention by the National Cancer Institute (Biological Testing Branch, Developmental Therapeutics Program, DCTD, NCI, Fairview Center, Suite 205, 1003 West 7th Street, Frederick, Md. 21701-8527).
Cell Migration Assay—Migration was assessed using a 48-well Boyden chamber including 8 μm pore size collagen-coated (10 μg/ml rat tail collagen; Collaborative Laboratories) polycarbonate filters (Osmonics, Inc.). The bottom chamber wells included 27-29 μl of DMEM medium alone (baseline) or medium containing chemo-attractant (bFGF, VEGF or Swiss 3T3 cell conditioned medium). The top chambers included 45 μl of HUVEC cell suspension (1×10^6 cells/ml) prepared in DMEM+1% BSA with or without the test compound. Followinf 5 h of incubation at 37° C., the membrane was rinsed with PBS, fixed and stained in Diff-Quick solutions. The filter was placed on a glass slide with the migrated cells facing down and cells on top were removed using a Kimwipe. The testing was performed in 4-6 replicates where five fields were counted from each well. Negative unstimulated control values were subtracted from stimulated control and drug treated values. Data wad plotted as mean migrated cell±S.D. IC50 was calculated from the plotted data.

Assay [2] concerns the target T1, heparanase (H53) (Homo sapiens, UniProt Q9Y251, K307R).
T1 sequence (Q9Y251 158-543 K307R limits assumed): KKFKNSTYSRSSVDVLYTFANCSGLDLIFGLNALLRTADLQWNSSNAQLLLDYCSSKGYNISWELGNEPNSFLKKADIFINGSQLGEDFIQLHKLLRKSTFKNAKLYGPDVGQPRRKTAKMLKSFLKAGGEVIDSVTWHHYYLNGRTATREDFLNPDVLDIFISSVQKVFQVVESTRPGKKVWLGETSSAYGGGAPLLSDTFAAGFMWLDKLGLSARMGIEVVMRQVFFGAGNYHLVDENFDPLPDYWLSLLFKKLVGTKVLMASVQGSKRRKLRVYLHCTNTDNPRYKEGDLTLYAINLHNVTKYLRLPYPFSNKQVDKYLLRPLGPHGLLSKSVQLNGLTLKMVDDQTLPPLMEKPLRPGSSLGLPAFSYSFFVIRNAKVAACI
T1 sequence (Q9Y251 36-109 limits assumed): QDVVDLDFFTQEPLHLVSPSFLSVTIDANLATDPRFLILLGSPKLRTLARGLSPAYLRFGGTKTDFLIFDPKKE
The assay can be described thus: Heparanase activity inhibition (H53), DMB assay. It is filed as biochemical. The method, then:
At the end of the incubation, the cells were lysed by three consecutive cycles of freezing and thawing in a −80° C. Freezer and a 37° C. shaker. Formation of active heparanase was detected by determination of heparanase activity in DMB assay as described in patent application U.S. Pat. No. 6,190,875B.

In assay [3] the test system is HT1080 cells. Description: In vitro assay of invasion inhibition (matrigel, BD BioCoat). Format: cell-based. As to conditions: Homo sapiens, HT-1080. The method, then: In vitro assay of invasion inhibition—The ability of the compounds of the invention to inhibit cell invasion was determined quantitatively by the in vitro Endothelial Cell Migration assay using a BD BioCoat Angiogenesis System kit. The kit consisted of a 24-multiwell insert plate (FluoroBlok, BD Falcon) containing a microporous (3.0 μm pore size) polyethylene terephthalate (PET) membrane that was capable of blocking fluorescence completely (>99% efficiency). This membrane was uniformly coated with matrigel (BD Matrigel Matrix). The uniform layer of matrigel matrix served as a reconstituted authentic basement membrane in vitro, providing a true barrier to non-invasive cells, but allowing endothelial cells to attach to the membrane and freely migrate towards an angiogenic stimulus in the lower chamber of the insert plate. Post-labeling the cells with a fluorescent dye and measuring the fluorescence of invading cells in a fluorescent plate reader, provided quantitative measurement of cell invasion.
To cover the optimal seeding density for HT1080 cells, suspensions containing various cell concentrations were prepared: 1 ml of 3×10^5 cells/ml, 8 ml of 1.5×10^5 cells/ml and 1 ml of 0.75×10^5 cells/ml. […] Only those labeled cells that have invaded the matrigel and passed through the pores of the PET membrane, were detected.

Assay [4] has as its target T2, VEGF (Homo sapiens, UniProt P15692).
T2 sequence (P15692 27-191 isoform P15692-4): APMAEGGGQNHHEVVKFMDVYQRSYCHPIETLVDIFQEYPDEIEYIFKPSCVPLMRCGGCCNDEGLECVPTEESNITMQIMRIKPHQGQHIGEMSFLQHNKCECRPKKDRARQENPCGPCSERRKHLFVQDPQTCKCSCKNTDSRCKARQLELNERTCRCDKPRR
Description: Elisa assay for binding of VEGF to heparin. As to conditions: inhibition of VEGF binding to heparin. The method, then: Elisa assay for determination of binding of VEGF to heparin—96 well microplates were coated overnight with Heparin-albumin (Lizard) and blocked with 1% BSA in PBS with 0.05% Tween and 0.01% thimerosal for 2 hrs. VEGF was added to the plates at a concentration of 2 ng/ml and incubated for 45 min. at 23-25° C. The amount of VEGF bound to heparin was detected using anti-VEGF monoclonal antibody (Sigma Cat. # V4758) at a concentration of 0.26 μg/ml and secondary antibodies Sheep anti-mouse IgG linked to horseradish peroxidase (1:2000). TMB (Pierce Cat. #34021) was used as a substrate for peroxidase.
The plates were read at 450 nm with a reference wavelength of 630 nm using a VERSAmax plate reader. […] Percent inhibition was calculated as compared with the control reactions pre-incubated with 1% DMSO only.

One may read the IC50 as the midpoint of a concentration-inhibition curve.

`O=C(O)CCCN1C(=O)C(=Cc2ccc(-c3ccc([N+](=O)[O-])cc3)o2)SC1=S` [Compound 5]: the IC50 came out at 400 nM in assay [1]; 12.5 µM in assay [2] (heparanase activity inhibition (H53), NI = no inhibition); 12 µM in assay [3]; 3.2 µM in assay [4]. In addition, the “heparanase activity inhibition (H53) in addition to inhibition of pro-heparanase activation” value in assay [2] is “dual activity”.

The values above are taken from patent US20050042213A1, “Methods and pharmaceutical compositions for modulating heparanase activation and uses thereof” (InSight Biopharmaceuticals Ltd., priority 2003, published 2005).
